Columns and labels:
[1] = system: panel of cancer cell lines; assay: Cytotoxicity against a panel of cancer cell lines (summary); assay type: cell-based; conditions: Homo sapiens; summary statement of the conclusions
Method: (§1) The cytotoxicity of compounds 1–12 was evaluated in vitro against different cancer cell lines: MCF-7 breast cancer, DU-145 and PC-3 human prostate cancer, and one non-tumor cell line, human colon epithelial cells CCD 841 CoN (CoN). […] Four serial dilutions (from 12.5 to 100 μM) for each sample were evaluated in triplicate.
(§2) The sulforhodamine B assay was used according to the method of Skehan et al.. Briefly, the cells were set up at 3 × 10^3 cells per well of a 96 200 μL well, flat-bottomed, microplate. Cells were incubated at 37 °C in a humidified 5% CO2/95% air mixture and treated with the compounds at different concentrations for 72 h. At the end of drug exposure, cells were fixed with 50% trichloroacetic acid at 4 °C. After washing with water, cells were stained with 0.1% sulforhodamine B (Sigma-Aldrich, St. Louis, MO, USA), dissolved in 1% acetic acid (50 μL/well) for 30 min, and subsequently washed with 1% acetic acid to remove unbound stain. Protein-bound stain was solubilized with 100 μL of 10 mM unbuffered Tris base, and the cell density was determined using a […] plate reader (wavelength 540 nm). Values shown are the mean ± SD of three independent experiments in triplicate. The software used to calculate the IC50 values was GraphPad (GraphPad Software, San Diego, CA, USA).

[2] = system: caspase-3 in CoN cells; assay: Caspase 3 activity assay (colorimetric, DEVD-pNA); assay type: cell-based, human; conditions: compound 50 μM, control 1% ethanol
Description: (§3) Depletion of mitochondrial membrane potential leads to the release of apoptogenic factors, such as cytochrome c in the apoptotic cascade, and activation of caspases. Then we investigated the effects of our compounds on caspase activity. We focused on caspase-3, which is a main executor of apoptosis playing a central role in its biological processing. We analyzed the effect of treatment with the compound 1, 8 and 12 on caspase-3 activation in normal and cancer cells. […] Compound 1 increased the activity of caspase-3 by 3.4 ± 0.1, 1.4 ± 0.1 and 2.8 ± 0.1 times versus control cells in MCF-7 (black), CoN (white) and PC-3 (gray) cells, respectively. Compound 8 increased the activity of caspase 3 by 2.4 ± 0.1, 1.3 ± 0.2 and 2.7 ± 0.1 times versus control cells in MCF-7 (black), CoN (white) and PC-3 (gray) cells, respectively.
(§4) Caspase activity was measured using a colorimetric assay. Briefly, the cells exposed to compounds were collected by centrifugation at 1000 rpm and lysed with lysis buffer (1% Triton X-100, 0.32 M sucrose, 5 mM EDTA, 10 mM Tris–HCl, pH 8.0, 2 mM dithiothreitol, 1 mM PMSF, […] aprotinin, 1 mg/mL leupeptin). Thereafter, the lysates were transferred to wells in a 96-well microplate and were incubated with DEVD-pNA (final concentration 200 μM) specific for caspase-3/7, at 37 °C for 1 h. The intensity of the developed color was read at 405 nm in a microplate reader (SpectraMax, Winooski, VT, USA). The results are expressed as percentages of the control level.

[3] = system: caspase-3 in MCF-7 cells; assay: Caspase 3 activity assay (colorimetric, DEVD-pNA); assay type: cell-based, human; conditions: MCF-7, compound 50 μM; control 1% ethanol
Description: as §3, §4

[4] = system: caspase-3 in PC-3 cells; assay: Caspase 3 activity assay (colorimetric, DEVD-pNA); assay type: cell-based, human; conditions: PC-3, compound 50 μM; control 1% ethanol
Description: as §3, §4

[5] = system: MCF-7 cells; assay: Morphological changes, phase contrast microscope; assay type: cell-based, human; conditions: MCF-7, 50 μM compound for 24 h
Method: (§5) First, the appearance of morphological changes in the cells treated with 50 μM compound for 24 h was analyzed.

[6] = system: PC-3 cells; assay: Morphological changes, phase contrast microscope; assay type: cell-based, human; conditions: PC-3, 50 μM compound for 24 h
Method: as §5

[7] = system: CoN cells; assay: Morphological changes, phase contrast microscope; assay type: cell-based, human; conditions: 50 μM compound for 24 h
Method: as §5

[8] = system: CoN cells; assay: Mitochondrial membrane permeability, rhodamine 123 flow cytometry; assay type: cell-based, human; conditions: control treated cells assigned 100%
Description: Mitochondria play a crucial role in the apoptotic cascade by serving as a convergent center of apoptotic signals originating from both the extrinsic and intrinsic pathways. Changes induced in the mitochondrial membrane potential (MMP) have been reported previously to represent a determinant in the execution of cell death. As polygodial has been described as an inhibitor of mitochondrial ATPase and also as nonionic surfactant. This effect may be determinant in cell death, we has analyzed the effect of compounds 1, 8 and 12 on the mitochondrial membrane potential using flow cytometry with rhodamine 123 stain [24]. […] Similar differences were observed after treatments with compounds 1 and 8 at 100 μM.
Rhodamine 123, a cationic, voltage-sensitive probe that reversibly accumulates in mitochondria, was used to detect changes in transmembrane mitochondrial membrane potentials. Cells were labelled with 1 μM rhodamine 123 at 37 °C in cell medium for 60 min before terminating the experiment. Cells were detached from the plate, after washing with ice cold PBS, and the samples were analyzed by flow cytometry. Data are expressed in percentage of cells with rhodamine 123 [24].

[9] = Cell viability, sulforhodamine B assay; assay type: cell-based; conditions: human, CCD 841 CoN colon epithelial cells (non-tumoral cell line), 72 h exposure, dilutions 12.5 to 100 μM, non-tumor cell line, read-out: Cytotoxicity IC50, CoN
Method: as §1
(§6) The experimental cell cultures were obtained from the American Type Culture Collection (Rockville, MD, USA). MCF-7 cells (breast cancer cell line), PC-3 and DU-145 (prostate cancer cell lines), and human colon epithelial cells CCD 841 CoN (non-tumoral cell line) were grown in Dulbecco’s modified Eagle’s medium (DMEM) containing 10% FCS, 100 U/mL penicillin, 100 μg/mL streptomycin, and 1 mM glutamine. Cells were seeded into 96 well microtiter plates in 100 μL at a plating density of 5 × 10^3 cells/well. After 24 h incubation at 37 °C under a humidified 5% CO2 atmosphere to allow cell attachment, the cells were treated with different concentrations of drugs and incubated for 72 h under the same conditions. Stock solutions of compounds were prepared in ethanol and the final concentration of this solvent was kept constant at 1%. Control cultures received 1% ethanol alone.
as §2

[10] = system: MCF-7 breast cancer cell line; assay: Cell viability, sulforhodamine B assay; assay type: cell-based; conditions: Homo sapiens, MCF7, 72 h exposure, dilutions 12.5 to 100 μM, read-out: Cytotoxicity IC50, MCF-7
Method: as §1, §6, §2

[11] = system: DU-145 prostate cancer cell line; assay: Cell viability, sulforhodamine B assay; assay type: cell-based; conditions: Homo sapiens, 72 h exposure, dilutions 12.5 to 100 μM, read-out: Cytotoxicity IC50, DU145
Method: as §1, §6, §2

[12] = system: PC-3 prostate cancer cell line; assay: Cell viability, sulforhodamine B assay; assay type: cell-based; conditions: Homo sapiens, 72 h exposure, dilutions 12.5 to 100 μM, read-out: Cytotoxicity IC50, PC-3
Method: as §1, §6, §2

[13] = system: Salmonella strains TA 98, TA 2637, and TA 100; conditions: at highest non-toxic concentration; cited from earlier work

Q: For `CC1(C)CCC[C@]2(C)[C@@H](C=O)C(C=O)=CC[C@@H]12` [Compound 1, polygodial], which IC50 [1] is on record?
A: < 200 µM

Q: And the “increase of caspase-3 activity” value [2]?
A: 1.4 ± 0.1 times versus control cells

Q: What about the “increase of caspase-3 activity” value [3] of the same compound?
A: 3.4 ± 0.1 times versus control cells

Q: And the “increase of caspase-3 activity” value [4]?
A: 2.8 ± 0.1 times versus control cells

Q: What about the “morphological changes of cells” value [5] of the same compound?
A: severely distorted

Q: What about the “morphological changes of cells” value [6] of the same compound?
A: severely distorted

Q: And the “morphological changes of cells” value [7]?
A: severely distorted

Q: And the “percentage of rhodamine 123 stained cells” value (“percentage” below) ([8]; compound 50 µM)?
A: 111.6% ± 8.9%

Q: And the “percentage” value ([8]; compound 50 µM, listed as Comp. 1)?
A: 49.1 ± 6.6 %

Q: And the “percentage” value ([8]; compound 100 µM)?
A: 11.8 ± 2.9 %

Q: And the IC50 at 72 h [9]?
A: > 200 µM

Q: And the IC50 [10]?
A: 93.7 ± 9.1 µM

Q: What about the IC50 [11] of the same compound?
A: 71.4 ± 8.5 µM

Q: And the IC50 [12]?
A: 89.2 ± 6.8 µM

Q: What about the mutagenic activity [13] of the same compound?
A: no mutagenic activity

Source: paper PMC6270921, “Study on the Cytotoxic Activity of Drimane Sesquiterpenes and Nordrimane Compounds against Cancer Cell Lines” (Molecules, 2014)
